Laboratory results from US7015313B2, “Lectin protein prepared from Korean marine crab Philyra pisum, process for preparing the same and the use thereof” (priority 2001, dated 2006).

Tests used:
lectin PPA = assay: Hemagglutination-inhibition assay of the lectin PPA with monosaccharide, disaccharide and glycoprotein; assay type: binding, Philyra pisum; details: for Erythrocyte agglutination inhibition concentration: 6.25% mouse erythrocyte, lectin PPA diluted 128-fold; for inhibition of agglutination (in words): summary of Table 2
Method: In order to confirm that the lectin PPA of the present invention recognizes N-glycolylneuraminic acid, hemagglutination-inhibition reaction was performed using monosaccharide, disaccharide and glycoprotein. 50 Microliters of a 128-fold diluted solution of lectin PPA in 0.15 molar NaCl and 50 microliters of each of 1 milligram per milliliter solutions of monosaccharides (e.g., β-D-glucose, D-galactose, L-fucose, D-mannose, N-acetylneuraminic acid, N-glycolylneuraminic acid, N-acetyl-D-glucosamine, N-acetyl-D-galactosamine and methyl-α-D-glucopoyranoside), disaccharide (e.g., α-lactose, β-lactose, D-lactose, βgentiobiose, maltose, D-raffinose or D-cellobiose) and glycoprotein (e.g., bovine submaxillary mucin, thyroglobulin, fetuin and asialofetuin) in 0. 15 molar NaCl were added to the each well of a 96-well microplate. After the reaction for one hour or more at room temperature, 50 microliters of the erythrocyte suspended in 0.15 molar NaCl was added to each well and reacted for one hour at room temperature.
The negative sign (−) means that there is no hemagglutination-inhibition for 100 millimolar monosaccharide/disaccharide and 100 micromolar glucoprotein. NeuGc and NeuAc represent N-glycolylneuraminic acid and N-acetylneuraminic acid, respectively.

[1] = tested on: peroxidase-labeled lectin PPA; assay: ELISA with peroxidase-labeled lectin PPA on coated glycoproteins; assay type: binding, Philyra pisum; details: 1 milligram per milliliter glycoprotein solution diluted 10^3 to 10^8-fold, FIG. 3
Method: In order to more accurately verify the hemagglutination-inhibition reaction of the lectin PPA, ELISA was conducted. Specifically, the lectin PPA bound to a horse radish peroxidase (HRP) was used in examining the reactivity and sensitivity against glucoproteins by ELISA. First, 5.03 milligrams of HRP were dissolved in 0.2 milliliter of a 1.25% glutaraldehyde (EM grade)-100 millimolar sodium phosphate buffer (pH 6.8) and allowed to stand for 18 hours at room temperature. Then, 20 microliters of glycerol and 20 microliters of xylene cyanol were added thereto and this was used in performing gel filtration with a SEPHADEX (TM) G-75 column equilibrated with a 100 millimolar phosphate buffer and 0.15 molar NaCl (pH 7.2). After applying the glutaraldehyde-treated HRP onto the column and eluting with 0.15 molar NaCl, about 1 milliliter of the brownish fraction containing HRP solution was collected. This fraction was dialyzed with a 100 millimolar sodium carbonate-sodium bicarbonate buffer solution (pH 9.5) containing sucrose and followed by the same buffer without sucrose. To 300 microliters of HRP thus obtained were added 150 microliters of lectin PPA (concentration of about 0.4 milligram per milliliter concentration) containing with 0.15 molar NaCl. After confirming the pH value 9.0 or more, the resultant solution was incubated for 24 hours at 4° C. to prepare peroxidase-labeled lectin PPA. In the mean time, 1 milligram of each of fetuin, asialofetuin and bovine submaxillary mucin was dissolved in 1 milliliter of PBS and serial 10-fold dilutions were made. […] Then, the absorbance at 415 nanometers of each well was measured with a microplate reader. To eliminate the error of each well caused by the time difference while adding ABTS, a second measurement was performed after 10 minutes to determine the difference in the absorbances between the time of 10 minutes and 0 minute. […] The absorbance was decreased with the lowering of the concentration.

[2] = monosaccharide/disaccharide tested from 100 mM
[3] = glycoprotein tested from 100 micromolar
[4] = glycoprotein, minimum concentration

| Molecule | Erythrocyte agglutination inhibition concentration (lectin PPA; [2]) | also measured |
| --- | --- | --- |
| OC[C@H]1O[C@@H](O[C@H]2[C@H](O)[C@@H](O)[C@H](O)O[C@@H]2CO)[C@H](O)[C@@H](O)[C@@H]1O [D-cellobiose] | — (The negative sign (−) means that there is no hemagglutination-inhibition for 100 millimolar monosaccharide/disaccharide) | – |
| O=C[C@H](O)[C@@H](O)[C@@H](O)[C@H](O)CO [D-galactose] | — (The negative sign (−) means that there is no hemagglutination-inhibition for 100 millimolar monosaccharide/disaccharide) | – |
| OC[C@H]1O[C@@H](O[C@H]2[C@H](O)[C@@H](O)C(O)O[C@@H]2CO)[C@H](O)[C@@H](O)[C@H]1O (stereo partly drawn) [D-lactose] | — (The negative sign (−) means that there is no hemagglutination-inhibition for 100 millimolar monosaccharide/disaccharide) | – |
| O=C[C@@H](O)[C@@H](O)[C@H](O)[C@H](O)CO [D-mannose] | — (The negative sign (−) means that there is no hemagglutination-inhibition for 100 millimolar monosaccharide/disaccharide) | – |
| OC[C@H]1O[C@H](OC[C@H]2O[C@H](O[C@]3(CO)O[C@H](CO)[C@@H](O)[C@@H]3O)[C@H](O)[C@@H](O)[C@@H]2O)[C@H](O)[C@@H](O)[C@H]1O [D-raffinose] | — (The negative sign (−) means that there is no hemagglutination-inhibition for 100 millimolar monosaccharide/disaccharide) | – |
| C[C@H](O)[C@@H](O)[C@@H](O)[C@H](O)C=O [L-fucose] | — (The negative sign (−) means that there is no hemagglutination-inhibition for 100 millimolar monosaccharide/disaccharide) | – |
| OC[C@H]1O[C@H](O[C@H]2[C@H](O)[C@@H](O)[C@H](O)O[C@@H]2CO)[C@H](O)[C@@H](O)[C@@H]1O [Maltose] | — (The negative sign (−) means that there is no hemagglutination-inhibition for 100 millimolar monosaccharide/disaccharide) | – |
| CO[C@H]1O[C@H](CO)[C@@H](O)[C@H](O)[C@H]1O [Methyl-α-D-glucopyranoside] | — (The negative sign (−) means that there is no hemagglutination-inhibition for 100 millimolar monosaccharide/disaccharide) | – |
| CC(=O)N[C@H]1C(O)O[C@H](CO)[C@H](O)[C@@H]1O (stereo partly drawn) [N-acetyl-D-galactosamine] | — (The negative sign (−) means that there is no hemagglutination-inhibition for 100 millimolar monosaccharide/disaccharide) | – |
| CC(=O)N[C@H]1C(O)O[C@H](CO)[C@@H](O)[C@@H]1O (stereo partly drawn) [N-acetyl-D-glucosamine] | — (The negative sign (−) means that there is no hemagglutination-inhibition for 100 millimolar monosaccharide/disaccharide) | – |
| CC(=O)N[C@H]1[C@H]([C@H](O)[C@H](O)CO)OC(O)(C(=O)O)C[C@@H]1O (some centres unmarked) [N-acetylneuraminic acid] | — (The negative sign (−) means that there is no hemagglutination-inhibition for 100 millimolar monosaccharide/disaccharide) | – |
| O=C(CO)N[C@H]1[C@H]([C@H](O)[C@H](O)CO)OC(O)(C(=O)O)C[C@@H]1O (some centres unmarked) [N-glycolylneuraminic acid] | – | Erythrocyte agglutination inhibition concentration (lectin PPA; monosaccharide/disaccharide, minimum concentration): 190 µM; inhibition of agglutination (in words) (lectin PPA): inhibited the agglutination |
| OC[C@H]1O[C@@H](O)[C@H](O)[C@@H](O)[C@@H]1O [beta.-D-glucose] | — (The negative sign (−) means that there is no hemagglutination-inhibition for 100 millimolar monosaccharide/disaccharide) | – |
| OC[C@H]1O[C@@H](O[C@H]2[C@H](O)[C@@H](O)[C@@H](O)O[C@@H]2CO)[C@H](O)[C@@H](O)[C@H]1O [α-lactose] | — (The negative sign (−) means that there is no hemagglutination-inhibition for 100 millimolar monosaccharide/disaccharide) | – |
| OC[C@H]1O[C@@H](OC[C@H]2O[C@@H](O)[C@H](O)[C@@H](O)[C@@H]2O)[C@H](O)[C@@H](O)[C@@H]1O [β-gentiobiose] | — (The negative sign (−) means that there is no hemagglutination-inhibition for 100 millimolar monosaccharide/disaccharide) | – |
| OC[C@H]1O[C@@H](O[C@H]2[C@H](O)[C@@H](O)[C@H](O)O[C@@H]2CO)[C@H](O)[C@@H](O)[C@H]1O [β-lactose] | — (The negative sign (−) means that there is no hemagglutination-inhibition for 100 millimolar monosaccharide/disaccharide) | – |
| Asialofetuin: glycoprotein without sialic acid, does not contain N-glycolylneuraminic acid | – | Erythrocyte agglutination inhibition concentration (lectin PPA; [3]): — (The negative sign (−) means that there is no hemagglutination-inhibition for 100 millimolar monosaccharide/disaccharide and 100 micromolar glucoprotein); ELISA response (absorbance at 415 nanometers) [1]: no response occurred |
| Bovine submaxillary mucin | – | Erythrocyte agglutination inhibition concentration (lectin PPA; [4]): 1.3 µM; inhibition of agglutination (in words) (lectin PPA): inhibited the agglutination; ELISA response (absorbance at 415 nanometers) [1]: a response in which absorbance value is increased was observed |
| Fetuin: glycoprotein with NeuAc, does not contain N-glycolylneuraminic acid | – | Erythrocyte agglutination inhibition concentration (lectin PPA; [3]): — (The negative sign (−) means that there is no hemagglutination-inhibition for 100 millimolar monosaccharide/disaccharide and 100 micromolar glucoprotein); ELISA response (absorbance at 415 nanometers) [1]: no response occurred |
| Thyroglobulin: glycoprotein containing N-glycolylneuraminic acid | – | Erythrocyte agglutination inhibition concentration (lectin PPA; [4]): 0.4 µM; inhibition of agglutination (in words) (lectin PPA): inhibited the agglutination |
